These are literature values, as cited in patent publication US20220387434A1, “COMBINATION OF A BTK INHIBITOR AND AN MDM2 INHIBITOR FOR CANCER TREATMENT” (QUOGUE IP HOLDINGS LLC, priority 2019, published 2022).

This data set concerns lymphocytes. The following applies: Ibr versus Veh (FIG. 3).

`C=CC(=O)N1CCC[C@@H](n2nc(-c3ccc(Oc4ccccc4)cc3)c3c(N)ncnc32)C1` [Ibrutinib, 1-[(3R)-3-[4-amino-3-(4-phenoxyphenyl)pyrazolo[3,4-d]pyrimidin-1-yl]piperidin-1-yl]prop-2-en-1-one]: the “mobilization of lymphocytes into the peripheral circulation” value is “mobilization”.
